As usually defined, the IC50 is the concentration needed to halve the response being measured. Read a low IC50 as greater potency.

1 molecule from publication PMC11110727, “Exploiting thiol-functionalized benzosiloxaboroles for achieving diverse substitution patterns – synthesis, characterization and biological evaluation of promising antibacterial agents” (RSC Medicinal Chemistry, 2024) can be followed below.

The target in the test is T1, S. aureus MRSA LeuRS (Staphylococcus aureus, UniProt P67513).
T1 construct: The LeuRS gene from MRSA (PW-71) was amplified by PCR; made in house; host or cells: E. coli BL21(DE3)pLys
T1 sequence (P67513 whole entry): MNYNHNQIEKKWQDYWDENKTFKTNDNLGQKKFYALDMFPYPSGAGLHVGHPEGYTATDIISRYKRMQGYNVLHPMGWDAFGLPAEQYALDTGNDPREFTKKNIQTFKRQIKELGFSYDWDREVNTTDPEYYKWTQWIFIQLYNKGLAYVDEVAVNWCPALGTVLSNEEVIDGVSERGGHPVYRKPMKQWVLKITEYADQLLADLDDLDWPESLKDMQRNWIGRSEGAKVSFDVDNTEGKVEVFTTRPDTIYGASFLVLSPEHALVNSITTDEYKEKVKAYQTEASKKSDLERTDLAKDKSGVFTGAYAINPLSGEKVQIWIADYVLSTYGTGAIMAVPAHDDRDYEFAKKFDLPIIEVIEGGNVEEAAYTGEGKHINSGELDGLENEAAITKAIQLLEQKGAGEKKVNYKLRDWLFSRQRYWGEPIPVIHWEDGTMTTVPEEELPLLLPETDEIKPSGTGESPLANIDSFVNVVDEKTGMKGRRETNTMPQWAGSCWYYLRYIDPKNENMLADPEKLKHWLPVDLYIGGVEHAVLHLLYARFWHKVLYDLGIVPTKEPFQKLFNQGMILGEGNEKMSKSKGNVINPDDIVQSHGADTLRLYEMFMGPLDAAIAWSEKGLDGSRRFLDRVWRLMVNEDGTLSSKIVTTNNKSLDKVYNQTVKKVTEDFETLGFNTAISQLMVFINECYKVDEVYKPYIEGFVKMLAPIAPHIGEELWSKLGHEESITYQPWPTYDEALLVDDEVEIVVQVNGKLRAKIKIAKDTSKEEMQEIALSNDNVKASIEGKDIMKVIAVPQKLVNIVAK
In words: In vitro aminoacylation (enzyme inhibition) assay. The test is classed as biochemical. As for the experimental part:
We have undertaken research devoted to determining the most probable mechanism of antibacterial action. […] Considering structural similarity to benzoxaboroles we assumed that benzosiloxaboroles are active through this mechanism. Our working hypothesis was supported by the fact that benzosiloxaboroles are rather bacteriostatic than bactericidal,[26,27] which is consistent with the specificity of the OBORT mechanism. The enzyme inhibition assay was performed for compound 20 as it features high activity against S. aureus MRSA strains and the respective favorable SI = 19.5 (Table 5). […] We obtained S. aureus MRSA LeuRS in the E. coli expression system. From 400 mL culture, approximately 20 mg of 6× His tagged LeuRS (with a molecular mass of 92.3 kDa) was purified to more than 90% homogeneity, which was confirmed by sodium dodecylsulfate-polyacrylamide gel electrophoresis (SDS-PAGE; Fig. S2, ESI ^†). Next, we used an in vitro aminoacylation assay to investigate the ability of 20 to inhibit S. aureus MRSA LeuRS activity consistent with affecting the transfer of the ^14C-radiolabeled leucine to a total tRNA. […] (residual activity 30.8% at 25 μM).
The LeuRS gene from MRSA (PW-71) was amplified by PCR using the following primers: 5′-[…]-3′ and 5′-[…]-3′. The amplified leuRS was digested with BamHI and NotI and ligated into pETDuet-1 vector (Novagen) which carries an N-terminal His tag. After sequencing, the pETDuet1-leuRS plasmid was transformed into E. coli BL21(DE3)pLys cells, which were then grown overnight in 20 mL of Luria–Bertani (LB) medium containing 100 μg mL^−1 ampicillin and 30 μg mL^−1 chloramphenicol. Then the overnight culture was inoculated into 400 mL of Super Broth medium containing ampicillin and chloramphenicol at the same concentration, and the cells were grown until the OD600 reached 0.6. […] The protein concentration in the final solution was 2.86 mg mL^−1 (determined by the Bradford method and bovine serum albumin as a standard).[78] […]

With `C[Si]1(C)OB(O)c2cc(F)c(SCCS(=O)(=O)c3ccccc3)c(F)c21` [Compound 20, 5,7-Difluoro-1,1-dimethyl-6-((2-(phenylsulfonyl)ethyl)thio)benzo[c][1,2,5]oxasilaborol-3(1H)-ol], the IC50 is above 200 µM. In addition, for the setting “read-out: residual activity of S. aureus MRSA LeuRS”, the remaining activity at 25 µM stood at 92.9%.
